Test results as given in patent US20180116988A1, “METHODS OF PREVENTING AND TREATING AUTOIMMUNITY” (THE REGENTS OF THE UNIVERSITY OF COLORADO a body corporate, priority 2015, published 2018).
Read-outs that look alike come from different tables or passages of the source.

Columns and labels:
[1] = molecular target: T1, DQ8 (Homo sapiens, UniProt P01909+P01920, A209T/A45G/C70Q/D89A/E183D/E77G/F237L/G63E/H199R/I129T/K197E/L178F/L74F/L98V/N214S/Q57E/Q76R/S185I/S97I/T49S/V73L/Y58L); experiment: DQ8-stimulated IL-2 T cell response in T1D patients treated with methyldopa (open label phase 1b dose escalation study); format: in vivo; details: for reduction in DQ8-stimulated IL-2 T cell response: DQ8 positive T1D subjects
T1 construct: endogenous in cells; host or cells: blood cells of DQ8-positive human T1D subjects treated with methyldopa
From the text: (§1) Human leukocyte antigen (HLA) alleles confer significant genetic risk for type 1 diabetes (T1D) with recent studies implicating DQ8 in its pathogenesis, and DQ8 antigen presentation can be inhibited with methyldopa in animal models. In this pilot study, the inventors evaluated methyldopa treatment in 10 DQ8 positive human subjects with T1D, ages 18-46 years (mean 27) with less than 2 years of diabetes duration (mean 3 months). This was an open label phase 1b dose escalation study.

[2] = tested on: DR4; experiment: DR4 T cell response in T1D patients treated with methyldopa; format: in vivo, human; details: T1D subjects treated with varying doses of methyldopa
From the text: as §1

[3] = set-up: species or system human; details: in vivo
From the text: as §1

[4] = Glucose control in T1D patients treated with methyldopa over 3 months; format: in vivo, human
From the text: as §1

T1 sequence (P01920 33-261 A45G/Y58L/E77G/D89A/H199R/N214S, other chains not shown): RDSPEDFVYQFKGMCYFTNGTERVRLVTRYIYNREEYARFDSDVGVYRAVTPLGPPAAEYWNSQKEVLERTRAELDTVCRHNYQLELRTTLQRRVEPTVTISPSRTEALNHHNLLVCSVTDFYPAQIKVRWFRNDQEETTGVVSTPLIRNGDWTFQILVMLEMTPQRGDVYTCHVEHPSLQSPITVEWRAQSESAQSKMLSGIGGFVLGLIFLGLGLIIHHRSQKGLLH

With `C[C@](N)(Cc1ccc(O)c(O)c1)C(=O)O` [methyldopa, α-Methyl-3,4-dihydroxyphenylalanine] the “DQ8-stimulated IL-2 T cell response after stopping therapy” value ([1]; 6 weeks after stopping therapy) was “returned to normal”, the reduction in DQ8-stimulated IL-2 T cell response ([1]; at 1 week of dose escalation) was 32% and the reduction in DQ8-stimulated IL-2 T cell response ([1]; at 3 weeks of dose escalation) was 39%. The “DR4 T cell responses” value [2] was “minimally effected”, the subjects tolerating dosage ([3]; human) was 9/10 and the “serious adverse events (hypotension, DKA, or hypoglycemia)” value [3] was “No serious adverse events”. For the same compound, the subjects tolerating dosage [3] was “All subjects tolerated” and the glycemic control [4] was “good glycemic control”.
